# Read-outs that look alike come from different tables or passages of the source.
# Columns and labels:
# [1] = tested on: patients with hernispatial neglect and unilateral weakness following right hemisphere stroke; experiment: Mesulam cancellation (visual search) task of hemispatial neglect, clinical trial; format: in vivo
# Procedure: (§1) A commercially available rotigotine TTS has been tested in a double-blind, randomised, placebo controlled trial of the dopamine agonist rotigotine in 16 patients aged over 18 years with hernispatial neglect and unilateral weakness following right hemisphere stroke.
# (§2) Patients were assessed with a battery of standardised neglect tests, as well as with tests of working memory, selective and sustained attention and motor function. A replicated ABA double-blind, placebo-controlled N-of-1 randomised design (Edgington E, Onghena P. Randomization Tests (Statistics: a Series of Textbooks and Monographs). 4th ed. Chapman & Hall/CRC: 2007), which allows to evaluate the effectiveness of an intervention in small sample sizes. Each patient's performance was measured in three phases, each consisting of several assessment sessions: before treatment (phase A1), while receiving transdermal rotigotine (phase B) and after discontinuation of the drug - post treatment phase (phase A2). The exact duration of each phase was randomised across patients. Performance on rotigotine was compared with the pre-treatment baseline and post-treatment follow-up phases.
# (§3) The effects of the drug were evaluated for the whole group of 16 patients, and, separately for two subgroups with different extent of involvement of the prefrontal cortex in the stroke lesion. The subgroups are defined according to the extent of involvement of the prefrontal cortex in the stroke lesion: a minimal prefrontal involvement subgroup (0%-15% of the prefrontal cortex affected) and an extensive prefrontal subgroup (33%-55% of the prefrontal cortex affected).
# Phase A1 started on session 1 and its duration was randomised (across individuals) to between 5 and 9 days. Observations during this phase established the baseline performance. Phase B, when rotigotine was administered, could commence on day 6 to day 10, and its duration was a minimum of 7 and a maximum of 11 sessions. During treatment phase, a rotigotine 9 mg patch (4mg/24hr transdermal absorption) was applied daily and worn for 24 hours a day. Finally, phase A2, when patients were assessed after the discontinuation of rotigotine, was randomised to begin between sessions 13 and 17, and it lasted for the remaining 4 to 8 sessions.
# Each patient was randomly assigned a pattern of onset and duration of the treatment and baseline phases, within the duration limits described above. In this example, the patient had 6 baseline assessments (phase A1, sessions 1-6), followed by 8 days on rotigotine (sessions 7-14) and 6 follow-up assessments (phase A2, sessions 15-20) after discontinuation of the drug. […] Mid-grey depicts any additional sessions in phases A1 and A2 when the patient received placebo patches. Some other possible permutations of pre-treatment, treatment and post-treatment phases within the constraints of the design are shown in figure 1b. The actual difference in performance between treatment (B) and the off-treatment phases (A1 and A2) was ranked against the differences between phases produced by all other possible combinations of treatment allocation, given the limits in phase onset and duration. In total, there were 15 possible permutations.
# This visuospatial scanning test-further described in Mesulam, M.-M. Principles of Behavioural Neurology; tests of directed attention and memory (Davis, Philadelphia, 1985) - with a cluttered array of symbols is performed on A3 sheets. In this test visual target objects are identified among distracters; targets identified are marked by the participant (black circles in fig. 2). There was a 2 minutes time limit for this task. […] Furthermore, on rotigotine, there was an improvement in the spatial bias of the responses, measured as the proportion of the targets identified on the left when compared to those identified on the right. In the minimal prefrontal involvement subgroup, rotigotine had again a significant positive effect in the number of targets identified on the left. […]
# [2] = tested on: patients with hernispatial neglect and unilateral weakness following right hemisphere stroke; experiment: Touchscreen cancellation task of hemispatial neglect, clinical trial; format: in vivo; settings: group of all 16 patients; on rotigotine vs before treatment onset
# Procedure: as §1
# as §2, with “Performance on rotigotine was compared with the pre-treatment baseline and post-treatment follow-up phases.” left out
# (§4) Phase A1 started on session 1 and its duration was randomised (across individuals) to between 5 and 9 days. […] Finally, phase A2, when patients were assessed after the discontinuation of rotigotine, was randomised to begin between sessions 13 and 17, and it lasted for the remaining 4 to 8 sessions. […]
# [3] = tested on: patients with hernispatial neglect and unilateral weakness following right hemisphere stroke; experiment: Vertical Corsi spatial working memory task, clinical trial; format: in vivo; settings: in some patients
# Procedure: as §1
# as §2, with “Performance on rotigotine was compared with the pre-treatment baseline and post-treatment follow-up phases.” left out
# as §4
# [4] = tested on: patients with hernispatial neglect and unilateral weakness following right hemisphere stroke; experiment: Selective and sustained attention (vigilance) task, clinical trial; format: in vivo
# Procedure: as §1, §2, §3
# Phase A1 started on session 1 and its duration was randomised (across individuals) to between 5 and 9 days. Observations during this phase established the baseline performance. […] Finally, phase A2, when patients were assessed after the discontinuation of rotigotine, was randomised to begin between sessions 13 and 17, and it lasted for the remaining 4 to 8 sessions.
# The subject had to identify high- or low- sallence targets among non targets on either side. % correct and reaction times are measured, further described in Barcelo et al. Nature Neuroscience 2000 3:399-403.
# Participants detected targets (inverted triangles) among sequences of distractors (upright triangles) randomly presented to the ipsilesional and contralesional visual fields. […]
# As a measure of selective attention, the ratio of the reaction time (RT) to high visual salience targets over the RT to low visual salience targets was used. Furthermore, using this task, sustained attention was quantified over time, by measuring the difference in RT and % correct responses between the first and the second half of each experimental session. […]
# [5] = tested on: patients with hernispatial neglect and unilateral weakness following right hemisphere stroke; experiment: Motricity Index (motor function on the affected side), clinical trial; format: in vivo; settings: in some patients
# Procedure: as §1
# as §2, with “Performance on rotigotine was compared with the pre-treatment baseline and post-treatment follow-up phases.” left out
# as §4
# neglect patients = settings: cited from earlier work
compound,measurement,setting,value
"CCCN(CCc1cccs1)C1CCc2c(O)cccc2C1 (single isomer, unassigned; (-)) [rotigotine, (-)-5,6,7,8-tetrahydro-6-[propyl-[2-(2thienyl)ethyl]-amino]-1-naphthalenol]",number of targets found on the left side,"[1]; entire group of 16 patients, on rotigotine vs pre- and post-treatment phases averaged or post-treatment phase alone",significantly higher
same,difference on- and off-treatment in the number of targets found on the left side relative to baseline,"[1]; entire group of 16 patients, rotigotine 9 mg patch (4mg/24hr) daily, actual treatment allocation higher than mean difference of all possible permutations",12.8%
same,effect size: less rightward bias relative to baseline (spatial bias in visual search),"[1]; entire group of 16 patients, rotigotine 9 mg patch (4mg/24hr) daily, actual treatment allocation in comparison to all possible permutations",8.1%
same,spatial bias in visual search,"[1]; entire group, on rotigotine vs post-treatment phase or both off-treatment phases",improved significantly
same,decrease in the number of targets found in a smaller area on the right hand side,"[1]; entire patient group, during treatment",not statistically significant
same,spatial bias,"[1]; extensive prefrontal group, on rotigotine",improved significantly
same,number of left targets found,"[1]; extensive prefrontal subgroup (33%-55% of prefrontal cortex affected), on rotigotine",did not reach significance
same,number of targets identified in total,"[1]; group of all 16 patients, on rotigotine",significantly larger number of targets
same,number of left targets found,"[1]; minimal prefrontal subgroup (0%-15% of prefrontal cortex affected), on rotigotine",significantly higher
same,targets identified,[2],more targets were identified
same,spatial working memory (spatial span),[3],improved spatial working memory
same,ratio of RT to high salience vs low salience targets,"[4]; entire group, left sided targets, during treatment vs pre-treatment baseline",significant increase
same,ratio of RT to high salience vs low salience targets,"[4]; entire group, left sided targets, treatment vs post-treatment baseline or average of both off-treatment phases",only marginal
same,ratio of RT to high salience vs low salience targets,"[4]; extensive prefrontal subgroup, overall for both left and right-sided targets",significant beneficial effect
same,ratio of RT to high salience vs low salience targets,"[4]; minimal prefrontal subgroup (e.g. left sided targets, comparison with off-treatment average)",no significant effect
same,"motor function on the affected side (Motricity Index of the affected arm, leg and side)",[5],improved motor function on the affected side
CN1CCc2cccc3c2[C@H]1Cc1ccc(O)c(O)c1-3 [Apomorphine],effect on hemispatial neglect,neglect patients; four neglect patients tested (Geminiani et al. 1998),transient improvement in three out of four neglect patients
NC12CC3CC(CC(C3)C1)C2 [amantadine],effect on hemispatial neglect,neglect patients; small-scale trial in four neglect patients (Buxbaum et al. 2007),did not demonstrate any beneficial effect

# — patent publication EP2559435A1, “Rotigotine in the treatment of hemispatial neglect, stroke and deficits following stroke” (UCB Pharma GmbH, priority 2011, dated 2013)
